Patent US20100143262A1, “Method for Identifying Allergenic Proteins And Peptides” (priority 2008, published 2010)

Key:
[1] = system: Humanized Rat Basophil Leukaemia (RBL) cells (clone RBL-703/21); test: human RBL assay: β-hexosaminidase release of humanized RBL cells loaded with patients' serum IgE; assay type: cell-based; conditions: for biological activity (% of patients): percentage of 78 patients' sera triggering β-hexosaminidase release, milk components 0.3 μg/ml; for extent of degranulation relative to the activity of the complete protein: synthetic alphaS1-casein-derived peptides
From the text: A scientifically approved model to test biological reactivity of molecules is induction of histamine release from human basophil granulocytes (Purohit 2005). For this purpose a rat basophil leukaemia cell line expressing the α-chain of the human FcεRI receptor (Hoffmann et al., Int Arch Allergy Immunol, Vol 126(4), p. 277-285) was used. Different milk components (n=33) including whole milk extracts from different species, milk fractions, purified natural and recombinant cow's milk proteins, and recombinant protein fragments were tested. The percentages of 78 patients whose serum IgE antibodies trigger β-hexosaminidase release of the humanized RBL cells in response to the individual milk components were determined (FIG. 3).
(§1) Sera from 78 patients who were selected according to a positive case history, positive skin-prick reactions and determination of specific IgE to cow's milk extract using the CAP-FEIA System (Phadia, Uppsala, Sweden) were used. Sera were obtained from five adults and 73 children (30 female and 43 male) from Austria, Germany, Italy, Spain and France.
Humanized Rat Basophil Leukaemia (RBL) cells (clone RBL-703/21) were incubated in microtiter plates overnight at 37° C. (7% CO2, 95% humidity) with 50 μl human sera, diluted 1:10. Afterwards cells were washed and exposed to milk components, diluted to 0.3 μg/ml protein in Tyrodes buffer containing 50% D2O and 0.1% BSA/HAS for 1 hour at 37° C. (7% CO2, 95% humidity). Spontaneous release of the cells was also evaluated. Finally, the cell supernatants were incubated with 50 μl assay solution (0.1 M citric acid or sodium citrate, pH 4.5, 160 μM 4-methyl umbelliferyl-N-acetyl-β-D-glucosaminide) in new microtiter plates at 37° C. (7% CO2, 95% humidity) for 1 h. The reactions were stopped by addition of 100 μl glycine buffer per well and the fluorescence measured at λex: 360 and λem: 465 using a fluorescence microplate reader. The specific hexosaminidase release of each sample was calculated using the formula: [(FlS−FlSp):(FlZ−FlSp)]×100 (where […] is the fluorescence of the sample; FlSp is the fluorescence of the spontaneous release and FlZ is the fluorescence of the total release).

[2] = system: serum IgE of cow's milk allergic patients; test: IgE binding capacity (IgE reactivity) of milk components with patients' sera; set-up: species or system human; conditions: sera of cow's milk allergic patients (n=78)
From the text: as §1

patients' serum IgE = test: microarray IgE reactivity testing of ALA-derived peptides; assay type: binding, human; conditions: sera from the 36 patients with IgE reactivity to rALA
Description: IgE reactivity testing to ALA-derived peptides:IgE reactivities of the ALA-derived peptides were determined by microarray analysis as described (Schulmeister et al., J Immunol. 182(11):7019-29). In brief, milk components were spotted onto a capillary-flow membrane on an ordinary microscope glass slide and incubated with 25 μl of patients' sera. Bound IgE antibodies were detected with a fluorescence-conjugated anti-IgE antibody at a wavelength of 670 nm. The cut off level was set for each patient as the double value of the individual value gained with human serum albumin.
In order to identify IgE-reactive epitopes of ALA, we synthesized 8 peptides spanning the ALA sequence (Table 2). […] The IgE reactivity of the 8 overlapping peptides was evaluated by microarray analysis using sera from the 36 patients showing IgE reactivity to rALA. […] In total 19 of the 36 patients with IgE reactivity to rALA reacted at least with one ALA-derived synthetic peptide.

[3] = system: IgE of sera from cow's milk allergic patients; test: dot blot IgE reactivity of nitrocellulose-dotted milk components; assay type: binding, human; conditions: 1 μg dotted; sera from three cow's milk allergic patients, 1:20
From the text: In FIG. 6 a Mascot search and the identification of beta-casein-derived peptides in hydrolyzed cow's milk is depicted. At the top beta-casein, the only identified milk allergen in mass spectrometry, is mentioned with its molecular mass and calculated pI. Below the search parameters and the obtained sequence coverage of beta-casein are given. […] The beta-casein allergen was identified with peptide matches: HQPHQPLPPT (calculated mass of 1.25 kDa, corresponding to aa 160-170 of beta-casein), VYPFPGPIPN (calculated mass of 1.19 kDa, corresponding to aa 74-84 of beta-casein), SSSEE (calculated mass of 0.65 kDa, corresponding to aa 31-36 of beta-casein), and PVVVPP (calculated mass of 0.87 kDa, corresponding to aa 96-103 of beta-casein). In FIG. 7 IgE reactivity testing of these peptides is shown (Table 1: cas b-1, 2, 3 and 4; FIG. 7). […] IgE reactivity of nitrocellulose-dotted cow's milk (CM), recombinant beta-casein (rBC), synthetic beta-casein-derived peptides (cas b-1, cas b-2, cas b-3, cas b-4), and recombinant alphaS1-casein (rAS1C) were analysed by dot blot assay. Nitrocellulose-bound milk components were incubated with the sera from three cow's milk allergic patients (lanes 1, 2 and 3) and a non-allergic individual (lane C). Bound IgE antibodies were detected with ^125I-labeled anti-IgE antibodies. […] Furthermore, they are different from the published major IgE binding regions of beta-casein (aa 1-16, aa 83-92, aa 135-144; Chatchatee 2001). None of the other IgE-reactive milk allergens and allergen fragments obtained by screening of the cDNA expression library (FIG. 1) were detected in the hydrolyzed milk sample which therefore could be identified as a non-allergenic preparation.
Hydrolyzed milk formula was analyzed by reversed-phase HPLC using a nano liquid chromatography system (Ultimate, LC Packings Dionex, The Netherlands) connected to the nanospray interface of a HCT-Ultra mass spectrometer (Bruker Daltonik, Germany). The obtained mass spectra were searched against the SwissProt protein databank using MASCOT (Matrix Science, London, United Kingdom) software search algorithms. For dot blot analysis 1 μg of protein was dotted onto nitrocellulose, and incubated with sera from milk allergic patients diluted 1:20 in PBST (PBS, 0.5% v/v Tween 20). Bound IgE antibodies were detected with 1:15 diluted ^125I-labelled anti-human IgE antibodies (IBL, Germany).

Substance	biological activity (% of patients) [1]	IgE binding (% of patients) [2]	IgE binding (% of patients) (patients' serum IgE)	other results
CPMIGVNQELAYFYPELFRQFYQLDAYPSGAWYYV [Cas 5, synthetic peptide of αS1-casein]	5.1 % of patients	41.0 % of patients	–	extent of degranulation relative to the activity of the complete protein [1]: about a tenth
recombinant kappa-casein [rKC]	6.4 % of patients	21.8 % of patients	–	–
MCVKKILDKVGINYWLAHKA [Lac7, synthetic ALA-derived peptide]	–	–	2.8 % of patients	–
CLKKYKVPQLEIVPNSAEERLHSMKEGIHIAQQKE [Cas 4, synthetic peptide of αS1-casein]	3.8 % of patients	35.9 % of patients	–	extent of degranulation relative to the activity of the complete protein [1]: about a tenth
alpha-lactalbumin [ALA]	11.5 % of patients	65.4 % of patients	–	–
HQPHQPLPPTV [cas b-1, synthetic peptide of β-casein]	–	–	–	IgE reactivity (dot blot) [3]: not IgE-reactive
EQLTKCEVFRELKDLKGYG [Lac1, synthetic ALA-derived peptide]	–	–	30.6 % of patients	–
recombinant alpha-lactalbumin [rALA]	21.8 % of patients	25.6 % of patients	100.0 % of patients	release compared with natural counterpart ([1]; recombinant versus natural alpha-lactalbumin): much higher release than its natural counterpart
NDSTEYGLFQINNK1WCKDD (NDSTEYGLFQINNKIWCKDD) [Lac4, synthetic ALA-derived peptide]	–	–	5.6 % of patients	–
VYPFPGPIIPNS [cas b-2, synthetic peptide of β-casein]	–	–	–	IgE reactivity (dot blot) [3]: not IgE-reactive
PLGTQYTDAPSFSDIPNPIGSENSEKTTMPLWC [Cas 6, synthetic peptide of αS1-casein]	7.7 % of patients	37.2 % of patients	–	extent of degranulation relative to the activity of the complete protein [1]: one fourth
WCKDDQNPHSSNICNISCDK [Lac5, synthetic ALA-derived peptide]	–	–	2.8 % of patients	–
recombinant beta-lactoglobulin [rBLG]	12.8 % of patients	23.1 % of patients	–	–
kappa-casein [KC]	25.6 % of patients	30.8 % of patients	–	–
RPKHPIKHQGLPQEVLNENLLRFFVAPFPEVC [Cas 1, synthetic peptide of αS1-casein]	6.4 % of patients	43.6 % of patients	–	–
FGKEKVNELSKDIGSESTEDQAMEDIKQMEAES [Cas 2, synthetic peptide of αS1-casein]	3.8 % of patients	15.4 % of patients	–	extent of degranulation relative to the activity of the complete protein [1]: one fourth
LSSSEE [cas b-3, synthetic peptide of β-casein]	–	–	–	IgE reactivity (dot blot) [3]: not IgE-reactive
sheep serum albumin [SSA]	2.6 % of patients	1.3 % of patients	–	–
ISCDKFLDDDLTDDIMCVKK [Lac6, synthetic ALA-derived peptide]	–	–	2.8 % of patients	–
PVVVPPFL [cas b-4, synthetic peptide of β-casein]	–	–	–	IgE reactivity (dot blot) [3]: not IgE-reactive
LKGYGGVSLPEWVCTTFHTS [Lac2, synthetic ALA-derived peptide]	–	–	33.3 % of patients	–
bovine serum albumin [BSA]	2.1 % of patients	6.4 % of patients	–	–
beta-lactoglobulin variant B [BLGB]	19.2 % of patients	51.3 % of patients	–	–
alpha-casein [AC]	25.6 % of patients	50.0 % of patients	–	–
LAHKALCSEKLDQWLCEKL [Lac8, synthetic ALA-derived peptide]	–	–	11.1 % of patients	–
ISSSEEIVPNSVEQKHIQKEDVPSERYLGYEQLLRC [Cas 3, synthetic peptide of αS1-casein]	2.6 % of patients	46.2 % of patients	–	extent of degranulation relative to the activity of the complete protein [1]: about a tenth
TFHTSGYDTQA1YQNNDSTE (TFHTSGYDTQAIYQNNDSTE) [Lac3, synthetic ALA-derived peptide]	–	–	0 % of patients	–
